Assay results from PMC11269473, “Monoamine oxidase inhibition properties of 2,1-benzisoxazole derivatives” (Molecular Diversity, 2023).
Several values for one entry are separate records, joined by “and”; a condition that tells them apart may be missing. Equal entries are not always repeated. Where two headings read alike, the source gives them in different places.

Tests used:
recombinant human MAO-A [1] = biological target: T1, recombinant human MAO-A (Homo sapiens, UniProt P21397); assay: MAO-A inhibition, IC50 determination with kynuramine as substrate (fluorescence of 4-hydroxyquinoline); type: biochemical; settings: 50 µM kynuramine, mean ± SD of triplicate, NI = no inhibition observed at 100 µM
T1 construct: purchased Sigma-Aldrich; host or cells: insect cells (microsomes)
T1 sequence (P21397 1-527): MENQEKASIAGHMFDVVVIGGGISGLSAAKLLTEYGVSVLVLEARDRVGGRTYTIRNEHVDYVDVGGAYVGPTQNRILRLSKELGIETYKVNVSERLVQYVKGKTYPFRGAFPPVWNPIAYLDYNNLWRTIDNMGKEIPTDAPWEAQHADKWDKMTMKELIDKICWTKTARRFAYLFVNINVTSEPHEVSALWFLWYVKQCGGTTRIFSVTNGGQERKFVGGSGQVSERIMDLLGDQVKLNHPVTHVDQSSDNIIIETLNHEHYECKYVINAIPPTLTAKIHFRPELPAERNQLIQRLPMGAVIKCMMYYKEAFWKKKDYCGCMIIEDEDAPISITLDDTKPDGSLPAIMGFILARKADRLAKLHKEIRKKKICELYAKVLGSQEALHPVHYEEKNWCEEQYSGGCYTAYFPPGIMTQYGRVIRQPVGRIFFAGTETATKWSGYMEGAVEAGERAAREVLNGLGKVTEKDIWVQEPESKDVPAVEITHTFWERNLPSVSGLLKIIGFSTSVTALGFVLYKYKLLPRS
Description: (§1) The MAO inhibition properties of the 2,1-benzisoxazole derivatives were investigated using the commercially available recombinant human MAO-A and MAO-B enzymes with kynuramine serving as substrate. MAO oxidizes kynuramine to yield 4-hydroxyquinoline, which was measured by fluorescence spectrophotometry.
(§2) For the MAO inhibition studies, a Varian Cary Eclipse fluorescence spectrophotometer was employed. Microsomes from insect cells containing recombinant human MAO-A and MAO-B (5 mg protein/mL) and kynuramine dihydrobromide were obtained from Sigma-Aldrich.
(§3) IC50 values for the inhibition of MAO were measured as described previously. Microsomes from insect cells containing recombinant human MAO-A and MAO-B (5 mg protein/mL) served as enzyme sources (Sigma-Aldrich) while kynuramine was used as non-specific MAO substrate. The enzyme reactions (200 µL reactions prepared in 96-well microtiter plates) contained phosphate buffer (100 mM, pH 7.4), 50 µM kynuramine and the test inhibitors at concentrations of 0.003–100 µM. […] The reactions were initiated with addition of MAO-A (0.0075 mg protein/mL) or MAO-B (0.015 mg protein/mL) and after 20 min of incubation at 37 °C, the reactions were terminated by the addition of 80 µL NaOH (2 N). The concentration of 4-hydroxyquinoline, the product of kynuramine oxidation by MAO, was measured by fluorescence spectrophotometry (λex = 310 nm; λem = 400 nm). IC50 values were estimated from sigmoidal plots of enzyme catalytic rate versus the inhibitor concentration (log[I]) which were constructed with the Prism software package (GraphPad). IC50 values were estimated in triplicate determinations from these plots and are expressed as mean ± standard deviation (SD).

recombinant human MAO-B = biological target: T2, recombinant human MAO-B (Homo sapiens, UniProt P27338); assay: MAO-B inhibition, IC50 determination with kynuramine as substrate (fluorescence of 4-hydroxyquinoline); type: biochemical; settings: for IC50: recombinant human MAO-B, 50 µM kynuramine, mean ± SD of triplicate, NI = no inhibition observed at 100 µM; for SI (selectivity index): SI = IC50(MAO-A)/IC50(MAO-B)
T2 construct: purchased Sigma-Aldrich; host or cells: insect cells (microsomes)
T2 sequence (P27338 1-520): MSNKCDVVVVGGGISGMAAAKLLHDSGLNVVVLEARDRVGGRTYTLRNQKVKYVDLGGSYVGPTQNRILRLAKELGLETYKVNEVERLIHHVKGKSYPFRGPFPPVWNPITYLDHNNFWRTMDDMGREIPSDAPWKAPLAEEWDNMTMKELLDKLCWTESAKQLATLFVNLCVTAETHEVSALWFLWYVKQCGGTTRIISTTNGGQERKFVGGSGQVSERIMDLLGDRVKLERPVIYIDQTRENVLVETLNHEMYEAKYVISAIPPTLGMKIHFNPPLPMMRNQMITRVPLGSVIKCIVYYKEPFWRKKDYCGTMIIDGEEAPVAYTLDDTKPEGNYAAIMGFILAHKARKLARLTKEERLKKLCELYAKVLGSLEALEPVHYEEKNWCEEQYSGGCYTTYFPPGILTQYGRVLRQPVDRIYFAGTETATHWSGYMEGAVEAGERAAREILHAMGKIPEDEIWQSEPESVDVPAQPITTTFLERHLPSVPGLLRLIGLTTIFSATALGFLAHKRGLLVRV
Description: as §1, §2
as §3, with “The” for “The reactions were initiated with addition of MAO-A (0.0075 mg protein/mL) or MAO-B (0.015 mg protein/mL) and after 20 min of incubation at 37 °C, the reactions were terminated by the addition of 80 µL NaOH (2 N). The”

recombinant human MAO-A [2] = biological target: T1, recombinant human MAO-A; assay: Lineweaver–Burk plots / mode of MAO-A inhibition and Ki; type: biochemical
Description: These two compounds represent potent MAO inhibitors among the study compounds. […] Each line of the Lineweaver–Burk plots was constructed with the kynuramine concentration ranging from 15 to 250 μM.
The insets are replots of the slopes of the Lineweaver–Burk plots versus inhibitor concentration. The Ki value equals the negative of the x-axis intercept when y = 0
IC50 values for the inhibition of MAO were measured as described previously. Microsomes from insect cells containing recombinant human MAO-A and MAO-B (5 mg protein/mL) served as enzyme sources (Sigma-Aldrich) while kynuramine was used as non-specific MAO substrate. The enzyme reactions (200 µL reactions prepared in 96-well microtiter plates) contained phosphate buffer (100 mM, pH 7.4), 50 µM kynuramine and the test inhibitors at concentrations of 0.003–100 µM. Stock solutions of the test inhibitors were dissolved in DMSO and added to the enzyme reactions to give a final DMSO concentration of 4% (v/v). The reactions were initiated with addition of MAO-A (0.0075 mg protein/mL) or MAO-B (0.015 mg protein/mL) and after 20 min of incubation at 37 °C, the reactions were terminated by the addition of 80 µL NaOH (2 N). The concentration of 4-hydroxyquinoline, the product of kynuramine oxidation by MAO, was measured by fluorescence spectrophotometry (λex = 310 nm; λem = 400 nm). IC50 values were estimated from sigmoidal plots of enzyme catalytic rate versus the inhibitor concentration (log[I]) which were constructed with the Prism software package (GraphPad). IC50 values were estimated in triplicate determinations from these plots and are expressed as mean ± standard deviation (SD).
For each line, the concentration of kynuramine ranged from 15–250 µM.

IC50 (recombinant human MAO-A [1])	IC50 (recombinant human MAO-B)	melting point	SI (selectivity index) (recombinant human MAO-B)	fold more potent MAO-B inhibition than homologues (recombinant human MAO-B; versus p-tolyl (3c), phenyl (3j), p-Br-phenyl (3m), p-Cl-phenyl (3n) and p-OCH3-phenyl (3o) homologues)	mode of MAO-A inhibition (recombinant human MAO-A [2]; Lineweaver–Burk lines intersect on the y-axis)	Ki (recombinant human MAO-A [2]; global (shared) fitting of the inhibition data, read-out: Ki, MAO-A, global (shared) fitting to the Michaelis–Menten equation)	Ki (recombinant human MAO-A [2]; replot of slopes versus inhibitor concentration, Ki = −x when y = 0, kynuramine 15–250 µM, read-out: Ki, MAO-A, from replot of slopes of Lineweaver–Burk plots)	SMILES
> 100 µM	25.1 ± 2.41 µM	175 to 177 °C						CC1(c2ccc3noc(-c4cccc(Cl)c4)c3c2)OCCO1 [Compound 3f, 3-(3-Chlorophenyl)-5-(2-methyl-1,3-dioxolan-2-yl)benzo[c]isoxazole]
71.6 ± 3.08 µM	7.92 ± 0.684 µM	143 to 144 °C	9.0					C(#Cc1ccc2noc(-c3ccccc3)c2c1)c1ccccc1 [Compound 3d, 3-Phenyl-5-(phenylethynyl)benzo[c]isoxazole]
43.9 ± 11.3 µM	< 6.59 µM and 3.49 µM	109 to 110 °C	13					Cc1ccc(-c2onc3ccc(I)cc23)cc1 [Compound 3i, 5-Iodo-3-(p-tolyl)benzo[c]isoxazole]
8.76 ± 0.058 µM	2.63 ± 0.178 µM	136 to 138 °C	3.3					Cc1ccc(-c2onc3ccc(Cl)cc23)cc1 [Compound 3c, 5-Chloro-3-(p-tolyl)benzo[c]isoxazole]
61 ± 9.19 µM	0.098 ± 0.0036 µM	236 to 237 °C	622	at least 12 fold				N#Cc1ccc(-c2onc3ccc(Cl)cc23)cc1 [Compound 7b, 4-(5-Chlorobenzo[c]isoxazol-3-yl)benzonitrile]
3.29 ± 0.254 µM	10 ± 0.949 µM	190 to 192 °C	0.33					c1ccc(-c2onc3ccc(Oc4ccc5noc(-c6ccccc6)c5c4)cc23)cc1 [Compound 5, 5,5'-Oxybis(3-phenylbenzo[c]isoxazole)]
10.6 ± 0.049 µM	4.43 ± 0.12 µM							Clc1ccc2noc(-c3ccccc3)c2c1 [Compound 3j, 5-Chloro-3-phenylbenzo[c]isoxazole]
17.7 ± 0.424 µM	< 16.3 µM and 16.3 µM	112 to 115 °C	1.1					Ic1ccc2noc(-c3ccccc3)c2c1 [Compound 3h, 5-Iodo-3-phenylbenzo[c]isoxazole]
8.49 ± 0.017 µM	2.34 ± 0.055 µM	174 °C	3.6					COc1ccc(-c2onc3ccc(Cl)cc23)cc1 [Compound 3o, 5-Chloro-3-(4-methoxyphenyl)benzo[c]isoxazole]
5.35 ± 0.211 µM	27.3 ± 2.16 µM	137 to 138 °C	0.20		competitive	0.5 ± 0.024 µM	0.46 µM	c1ccc(-c2onc3ccc(C4OCCO4)cc23)cc1 [Compound 3l, 5-(1,3-Dioxolan-2-yl)-3-phenylbenzo[c]isoxazole]
> 100 µM	5.56 ± 0.73 µM							Clc1cc2noc(-c3ccccc3)c2cc1Cl [Compound 3k, 6-Dichloro-3-phenylbenzo[c]isoxazole]
8.95 ± 0.581 µM	3.55 ± 0.037 µM	171 to 172 °C	2.5					Cc1nc(-c2cc3noc(-c4ccccc4)c3cc2Cl)no1 [Compound 3e, 5-Chloro-6-(5-methyl-1,2,4-oxadiazol-3-yl)-3-phenylbenzo[c]isoxazole]
19.4 ± 2.58 µM	< 6.59 µM and 3.03 µM	112 to 114 °C	6.4					COc1ccc(-c2onc3ccc(I)cc23)cc1 [Compound 3a, 5-Iodo-3-(4-methoxyphenyl)benzo[c]isoxazole]
19.5 ± 3.2 µM	5.79 ± 0.013 µM	116 to 118 °C	3.4					Brc1ccc2noc(-c3ccccc3)c2c1 [Compound 3g, 5-Bromo-3-phenylbenzo[c]isoxazole]
81.3 ± 28.7 µM	2.07 ± 0.381 µM	229 to 232 °C	39					Clc1ccc(-c2onc3ccc(Cl)cc23)cc1 [Compound 3n, 5-Chloro-3-(4-chlorophenyl)benzo[c]isoxazole]
77.7 ± 5.97 µM	< 6.59 µM and 6.59 µM	185 to 187 °C	12					Clc1ccc(-c2onc3ccc(I)cc23)cc1 [Compound 3b, 3-(4-Chlorophenyl)-5-iodobenzo[c]isoxazole]
> 100 µM	0.139 ± 0.044 µM	257 to 258 °C						Cc1nc(-c2cc3noc(-c4ccc(C#N)cc4)c3cc2Cl)no1 [Compound 7c, 4-(5-Chloro-6-(5-methyl-1,2,4-oxadiazol-3-yl)benzo[c]isoxazol-3-yl)benzonitrile]
83.2 ± 33.3 µM	1.18 ± 0.022 µM	230 to 232 °C	71					Clc1ccc2noc(-c3ccc(Br)cc3)c2c1 [Compound 3m, 3-(4-Bromophenyl)-5-chlorobenzo[c]isoxazole]

SMILES	IC50 (recombinant human MAO-A [1])	IC50 (recombinant human MAO-B)	melting point	SI (selectivity index) (recombinant human MAO-B)	fold more potent MAO-B inhibition than homologues (recombinant human MAO-B; versus p-tolyl (3c), phenyl (3j), p-Br-phenyl (3m), p-Cl-phenyl (3n) and p-OCH3-phenyl (3o) homologues)	mode of MAO-A inhibition (recombinant human MAO-A [2]; Lineweaver–Burk lines intersect on the y-axis)	Ki (recombinant human MAO-A [2]; global (shared) fitting of the inhibition data, read-out: Ki, MAO-A, global (shared) fitting to the Michaelis–Menten equation)	Ki (recombinant human MAO-A [2]; replot of slopes versus inhibitor concentration, Ki = −x when y = 0, kynuramine 15–250 µM, read-out: Ki, MAO-A, from replot of slopes of Lineweaver–Burk plots)
COc1ccc2c(c1)[nH]c1c(C)nccc12 [Harmine, reference compound]		> 100 µM						
